This note sets out measurements from patent publication EP0876161B1, “CONTRAST MEDIA” (priority 1996, dated 1997).

A short description of data set [1]: Osmolality of the formulated complex solution. The class given is physicochemical.
A further data set concerns mice. In words: Maximum tolerated dose (MTD) in mice of formulated complex solution. The class given is in vivo. The conditions noted are these: complex given as the formulated solution.
The nature of data set [2]: Osmolality determined in water, compared to the EGTA complex. The class given is physicochemical. The conditions noted are these: concentration 41 mM.

Turning to (NMG)4[(W3SO3)2(HO-PDTA)3], the osmolality in data set [1] (153mM solution, pH 6.98) came out at 499 mmol/kg. The “maximum tolerated dose (MTD)” value in the data set on mice is about 2.17 mmoles complex/kg.

In data set [1] (121 mM solution, pH 6.95), “Na4[(W3S3O)2(EGTA)3] [Na4[(W3S3O)2(EGTA)3] .6H2O]” came in with an osmolality of 517 mmol/kg. In the data set on mice, the “maximum tolerated dose (MTD)” value is on record as about 3.95 mmoles complex/kg.

As for “Na4[(W3SO3)2(BDTA)3] [Na4[(W3SO3)2(BDTA)3].12H2O]”, the osmolality in data set [1] (120mM solution, pH 7.4) is 459 mmol/kg. In the data set with mice, the “maximum tolerated dose (MTD)” value was ~ 2.55 mmoles complex/kg.

On to “Na4[(W3SO3)2(EGTA)3] [Na4[(W3SO3)2(EGTA)3].10H2O]”, for which the osmolality in data set [1] (168 mM solution, pH 6.65) was determined as 685 mmol/kg; in data set [2], 199 mmol/kg. In addition, the “maximum tolerated dose (MTD)” value in the data set on mice was about 7.75 mmoles complex/kg.

Regarding “Na4[(W3SO3)2(MeO-PDTA)3] [Na4[(W3SO3)2(MeO-PDTA)3] . 7H2O]”, the osmolality in data set [1] (140mM solution, pH 6.5) is 563 mmol/kg.

Consider “Na4[(W3SO3)2(OBETA)3] [Na4[(W3SO3)2(OBETA)3].10H2O]”, for which the osmolality in data set [1] (107 mM solution, pH 7.03) is 498 mmol/kg. Also, the “maximum tolerated dose (MTD)” value in the data set with mice is -4.35 mmoles complex/kg.

As to “Na4[(W3SO3)2(PDTA)3] [Na4[(W3SO3)2(PDTA)3] 11H2O]”, in data set [1] (79mM solution, pH 6.6), the osmolality is 311 mmol/kg. Besides, in the data set on mice, the “maximum tolerated dose (MTD)” value is over 6.5 mmoles complex/kg.
